Assays:
human TASK-1 = human TASK-1 (Homo sapiens (Human), UniProt O14649); assay: Inhibition of recombinant TASK-1 in stably transfected CHO cells (voltage-sensitive dye, KCl depolarization); assay type: cell-based; conditions: depolarization by 40 mM potassium chloride
Method: (§1) B-2. Inhibition of Recombinant TASK-1 and TASK-3 In Vitro
(§2) The investigations on the inhibition of the recombinant TASK-1 and TASK-3 channels were conducted using stably transfected CHO cells. The compounds according to the invention were tested in this case by application of 40 mM potassium chloride in the presence of a voltage-sensitive dye according to the method described in detail in the following references [Whiteaker et al., Validation of FLIPR membrane potential dye for high-throughput screening of potassium channel modulators, J. Biomol. Screen. 6 (5), 305-312 (2001); Molecular Devices FLIPR Application Note: Measuring membrane potential using the FLIPR® membrane potential assay kit on Fluorometric Imaging Plate Reader (FLIPR®) systems, http://www.moleculardevices.com/reagents-supplies/assay-kits/ion-channels/flipr-membrane-potential-assay-kits]. The activity of the test substances was determined as their ability to inhibit a depolarization induced in the recombinant cells by 40 mM potassium chloride. The concentration which can block half of this depolarization is referred to as IC50.

human TASK-3 = human TASK-3 (Homo sapiens (Human), UniProt Q9NPC2); assay: Inhibition of recombinant TASK-3 in stably transfected CHO cells (voltage-sensitive dye, KCl depolarization); assay type: cell-based; conditions: depolarization by 40 mM potassium chloride
Method: as §1, §2

Chain of human TASK-3 (Q9NPC2 whole entry): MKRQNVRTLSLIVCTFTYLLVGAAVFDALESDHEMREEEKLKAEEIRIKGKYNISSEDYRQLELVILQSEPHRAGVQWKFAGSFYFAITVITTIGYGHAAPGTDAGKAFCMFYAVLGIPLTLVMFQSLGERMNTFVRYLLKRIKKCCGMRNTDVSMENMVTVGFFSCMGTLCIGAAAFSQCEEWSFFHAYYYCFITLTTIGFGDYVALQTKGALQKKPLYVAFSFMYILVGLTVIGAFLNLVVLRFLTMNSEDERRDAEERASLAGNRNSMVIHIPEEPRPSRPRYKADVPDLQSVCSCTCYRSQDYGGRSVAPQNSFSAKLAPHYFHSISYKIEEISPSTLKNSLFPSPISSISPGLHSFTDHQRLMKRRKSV
Chain of human TASK-1 (O14649 whole entry): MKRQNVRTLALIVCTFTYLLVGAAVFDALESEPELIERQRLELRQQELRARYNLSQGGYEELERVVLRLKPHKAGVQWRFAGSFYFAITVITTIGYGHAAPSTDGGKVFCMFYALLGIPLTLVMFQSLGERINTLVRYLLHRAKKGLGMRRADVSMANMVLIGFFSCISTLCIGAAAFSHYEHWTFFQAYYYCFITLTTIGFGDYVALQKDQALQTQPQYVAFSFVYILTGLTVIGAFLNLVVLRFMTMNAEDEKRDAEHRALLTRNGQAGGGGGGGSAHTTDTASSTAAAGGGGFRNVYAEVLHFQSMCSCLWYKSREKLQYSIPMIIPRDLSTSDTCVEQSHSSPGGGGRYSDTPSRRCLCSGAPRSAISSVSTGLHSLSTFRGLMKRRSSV

SMILES | IC50 (human TASK-1) | IC50 (human TASK-3)
CCc1ccccc1NC(=O)N1C2CCC1CN(Cc1c(-c3ccc(Cl)cc3)nc3ncccn13)C2 [Example 95, 3-{[2-(4-chlorophenyl)imidazo[1,2-a]pyrimidin-3-yl]methyl}-N-(2-ethylphenyl)-3,8-diazabicyclo[3.2.1]octane-8-carboxamide] | 3 µM | 41 nM
O=C(Nc1cc(C(F)(F)F)ccc1Cl)N1C2CCC1CN(Cc1c(-c3ccc(Cl)cc3)nc3ncccn13)C2 [Example 97, 3-{[2-(4-chlorophenyl)imidazo[1,2-a]pyrimidin-3-yl]methyl}-N-[2-chloro-5-(trifluoromethyl)phenyl]-3,8-diazabicyclo[3.2.1]octane-8-carboxamide] | 31 µM | 450 nM
CCc1cccc(C)c1NC(=O)N1C2CCC1CN(Cc1c(-c3ccc(Cl)cc3)nc3ncccn13)C2 [Example 98, 3-{[2-(4-chlorophenyl)imidazo[1,2-a]pyrimidin-3-yl]methyl}-N-(2-ethyl-6-methylphenyl)-3,8-diazabicyclo[3.2.1]octane-8-carboxamide] | 9 µM | 160 nM
Cc1ccc(C)c(NC(=O)N2C3CCC2CN(Cc2c(-c4ccc(Cl)cc4)nc4ncccn24)C3)c1 [Example 99, 3-{[2-(4-chlorophenyl)imidazo[1,2-a]pyrimidin-3-yl]methyl}-N-(2,5-dimethylphenyl)-3,8-diazabicyclo[3.2.1]octane-8-carboxamide] | 30 µM | 750 nM
O=C(NC1CCCCC1)N1C2CCC1CN(Cc1c(-c3ccc(Cl)cc3)nc3ncccn13)C2 [Example 100, 3-{[2-(4-Chlorophenyl)imidazo[1,2-a]pyrimidin-3-yl]methyl}-N-cyclohexyl-3,8-diazabicyclo[3.2.1]octane-8-carboxamide] | 19 µM | 630 nM
CC(C)CNC(=O)N1C2CCC1CN(Cc1c(-c3ccc(Cl)cc3)nc3ncccn13)C2 [Example 101, 3-{[2-(4-Chlorophenyl)imidazo[1,2-a]pyrimidin-3-yl]methyl}-N-isobutyl-3,8-diazabicyclo[3.2.1]octane-8-carboxamide] | 19 µM | 510 nM
O=C(Nc1ccc(SC(F)(F)F)cc1)N1C2CCC1CN(Cc1c(-c3ccc(Cl)cc3)nc3ncccn13)C2 [Example 103, 3-{[2-(4-chlorophenyl)imidazo[1,2-a]pyrimidin-3-yl]methyl}-N-{4-[(trifluoromethyl)sulfanyl]phenyl}-3,8-diazabicyclo[3.2.1]octane-8-carboxamide] | 30 µM | 690 nM
O=C(Nc1cccc(F)c1)N1C2CCC1CN(Cc1c(-c3ccc(Cl)cc3)nc3ncccn13)C2 [Example 104, 3-{[2-(4-chlorophenyl)imidazo[1,2-a]pyrimidin-3-yl]methyl}-N-(3-fluorophenyl)-3,8-diazabicyclo[3.2.1]octane-8-carboxamide] | 19 µM | 460 nM
O=C(Nc1ccc(Cl)cc1C(F)(F)F)N1C2CCC1CN(Cc1c(-c3ccc(Cl)cc3)nc3ncccn13)C2 [Example 106, 3-{[2-(4-chlorophenyl)imidazo[1,2-a]pyrimidin-3-yl]methyl}-N-[4-chloro-2-(trifluoromethyl)phenyl]-3,8-diazabicyclo[3.2.1]octane-8-carboxamide] | 30 µM | 89 nM
Cc1ccccc1CNC(=O)N1C2CCC1CN(Cc1c(-c3ccc(Cl)cc3)nc3ncccn13)C2 [Example 107, 3-{[2-(4-chlorophenyl)imidazo[1,2-a]pyrimidin-3-yl]methyl}-N-(2-methylbenzyl)-3,8-diazabicyclo[3.2.1]octane-8-carboxamide] | 30 µM | 750 nM
CN(C(=O)N1C2CCC1CN(Cc1c(-c3ccc(Cl)cc3)nc3ncccn13)C2)c1ccccc1 [Example 108, 3-{[2-(4-chlorophenyl)imidazo[1,2-a]pyrimidin-3-yl]methyl}-N-methyl-N-phenyl-3,8-diazabicyclo[3.2.1]octane-8-carboxamide] | 7 µM | 90 nM
CCN(CC)C(=O)N1C2CCC1CN(Cc1c(-c3ccc(Cl)cc3)nc3ncccn13)C2 [Example 109, 3-{[2-(4-chlorophenyl)imidazo[1,2-a]pyrimidin-3-yl]methyl}-N,N-diethyl-3,8-diazabicyclo[3.2.1]octane-8-carboxamide] | 0.024 µM | 1.5 nM
O=C(N1CCOCC1)N1C2CCC1CN(Cc1c(-c3ccc(Cl)cc3)nc3ncccn13)C2 [Example 110, (3-{[2-(4-chlorophenyl)imidazo[1,2-a]pyrimidin-3-yl]methyl}-3,8-diazabicyclo[3.2.1]oct-8-yl)(morpholin-4-yl)methanone] | 13 µM | 230 nM
CC(C)N(C(=O)N1C2CCC1CN(Cc1c(-c3ccc(Cl)cc3)nc3ncccn13)C2)C(C)C [Example 111, 3-{[2-(4-chlorophenyl)imidazo[1,2-a]pyrimidin-3-yl]methyl}-N,N-diisopropyl-3,8-diazabicyclo[3.2.1]octane-8-carboxamide] | 6.3 µM | 290 nM
CCN(C(=O)N1C2CCC1CN(Cc1c(-c3ccc(Cl)cc3)nc3ncccn13)C2)C1CCCCC1 [Example 112, 3-{[2-(4-chlorophenyl)imidazo[1,2-a]pyrimidin-3-yl]methyl}-N-cyclohexyl-N-ethyl-3,8-diazabicyclo[3.2.1]octane-8-carboxamide] | 15 µM | 130 nM
O=C(N1CCCC1)N1C2CCC1CN(Cc1c(-c3ccc(Cl)cc3)nc3ncccn13)C2 [Example 113, (3-{[2-(4-chlorophenyl)imidazo[1,2-a]pyrimidin-3-yl]methyl}-3,8-diazabicyclo[3.2.1]oct-8-yl)(pyrrolidin-1-yl)methanone] | 1.1 µM | 62 nM
CCN(C(=O)N1C2CCC1CN(Cc1c(-c3ccc(Cl)cc3)nc3ncccn13)C2)c1ccccc1 [Example 114, 3-{[2-(4-chlorophenyl)imidazo[1,2-a]pyrimidin-3-yl]methyl}-N-ethyl-N-phenyl-3,8-diazabicyclo[3.2.1]octane-8-carboxamide] | 6.7 µM | 140 nM
CC(C)N(C)C(=O)N1C2CCC1CN(Cc1c(-c3ccc(Cl)cc3)nc3ncccn13)C2 [Example 115, 3-{[2-(4-chlorophenyl)imidazo[1,2-a]pyrimidin-3-yl]methyl}-N-isopropyl-N-methyl-3,8-diazabicyclo[3.2.1]octane-8-carboxamide] | 7.4 µM | 330 nM
O=C(N1CCCCC1)N1C2CCC1CN(Cc1c(-c3ccc(Cl)cc3)nc3ncccn13)C2 [Example 116, (3-{[2-(4-chlorophenyl)imidazo[1,2-a]pyrimidin-3-yl]methyl}-3,8-diazabicyclo[3.2.1]oct-8-yl)(piperidin-1-yl)methanone] | 2.7 µM | 65 nM
CC(C)N(C(=O)N1C2CCC1CN(Cc1c(-c3ccc(Cl)cc3)nc3ncccn13)C2)c1ccc(Cl)cc1 [Example 118, N-(4-chlorophenyl)-3-{[2-(4-chlorophenyl)imidazo[1,2-a]pyrimidin-3-yl]methyl}-N-isopropyl-3,8-diazabicyclo[3.2.1]octane-8-carboxamide] | 19 µM | 220 nM
CN(C)C(=O)N1C2CCC1CN(Cc1c(-c3ccc(Cl)cc3)nc3ncccn13)C2 [Example 119, 3-{[2-(4-chlorophenyl)imidazo[1,2-a]pyrimidin-3-yl]methyl}-N,N-dimethyl-3,8-diazabicyclo[3.2.1]octane-8-carboxamide] | 5.3 µM | 210 nM
CCOc1ccc(N(C)C(=O)N2C3CCC2CN(Cc2c(-c4ccc(Cl)cc4)nc4ncccn24)C3)cc1 [Example 120, 3-{[2-(4-chlorophenyl)imidazo[1,2-a]pyrimidin-3-yl]methyl}-N-(4-ethoxyphenyl)-N-methyl-3,8-diazabicyclo[3.2.1]octane-8-carboxamide] | 15 µM | 230 nM
COc1cccc(CN(C)C(=O)N2C3CCC2CN(Cc2c(-c4ccc(Cl)cc4)nc4ncccn24)C3)c1 [Example 121, 3-{[2-(4-chlorophenyl)imidazo[1,2-a]pyrimidin-3-yl]methyl}-N-(3-methoxybenzyl)-N-methyl-3,8-diazabicyclo[3.2.1]octane-8-carboxamide] | 12 µM | 120 nM
O=C(N1CCSCC1)N1C2CCC1CN(Cc1c(-c3ccc(Cl)cc3)nc3ncccn13)C2 [Example 122, (3-{[2-(4-Chlorophenyl)imidazo[1,2-a]pyrimidin-3-yl]methyl}-3,8-diazabicyclo[3.2.1]oct-8-yl)(thiomorpholin-4-yl)methanone] | 5 µM | 120 nM
COC(=O)N1C2CCC1CN(Cc1c(-c3ccc(Cl)cc3)nc3ncccn13)C2 [Example 123, methyl 3-{[2-(4-chlorophenyl)imidazo[1,2-a]pyrimidin-3-yl]methyl}-3,8-diazabicyclo[3.2.1]octane-8-carboxylate] | 14 µM | 230 nM
CCOC(=O)N1C2CCC1CN(Cc1c(-c3ccc(Cl)cc3)nc3ncccn13)C2 [Example 124, ethyl 3-{[2-(4-chlorophenyl)imidazo[1,2-a]pyrimidin-3-yl]methyl}-3,8-diazabicyclo[3.2.1]octane-8-carboxylate] | 0.79 µM | 17 nM
O=C(OC1CCCC1)N1C2CCC1CN(Cc1c(-c3ccc(Cl)cc3)nc3ncccn13)C2 [Example 125, cyclopentyl 3-{[2-(4-chlorophenyl)imidazo[1,2-a]pyrimidin-3-yl]methyl}-3,8-diazabicyclo[3.2.1]octane-8-carboxylate] | 0.23 µM | 27 nM

Source: patent US11098063B2, “Diazabicyclic substituted imidazopyrimidines and their use for the treatment of breathing disorders” (Bayer Aktiengesellschaft, priority 2017, dated 2021)
